Measurements published in article PMC3727903 (Bioorganic & medicinal chemistry letters, 2012).

How the values were obtained:
[1] = system: PGE2 production in HCA-7 colon cancer cells; assay: PGE2 production assay in IL-1β-treated HCA-7 cells; format: cell-based; settings: Homo sapiens, HCA-7, read-out: PGE2 (%): % of inhibition of PGE2 levels in HCA-7 cells, 1 μM concentration; ± SD (n = 3); NR = no observed reduction
COX-2 = target: T1, COX-2 (Homo sapiens, UniProt P35354); assay: COX-2 cell-free assay; settings: read-out: COX-2 (%): % of inhibition of COX-2 levels in vitro
T1 sequence (P35354 18-604): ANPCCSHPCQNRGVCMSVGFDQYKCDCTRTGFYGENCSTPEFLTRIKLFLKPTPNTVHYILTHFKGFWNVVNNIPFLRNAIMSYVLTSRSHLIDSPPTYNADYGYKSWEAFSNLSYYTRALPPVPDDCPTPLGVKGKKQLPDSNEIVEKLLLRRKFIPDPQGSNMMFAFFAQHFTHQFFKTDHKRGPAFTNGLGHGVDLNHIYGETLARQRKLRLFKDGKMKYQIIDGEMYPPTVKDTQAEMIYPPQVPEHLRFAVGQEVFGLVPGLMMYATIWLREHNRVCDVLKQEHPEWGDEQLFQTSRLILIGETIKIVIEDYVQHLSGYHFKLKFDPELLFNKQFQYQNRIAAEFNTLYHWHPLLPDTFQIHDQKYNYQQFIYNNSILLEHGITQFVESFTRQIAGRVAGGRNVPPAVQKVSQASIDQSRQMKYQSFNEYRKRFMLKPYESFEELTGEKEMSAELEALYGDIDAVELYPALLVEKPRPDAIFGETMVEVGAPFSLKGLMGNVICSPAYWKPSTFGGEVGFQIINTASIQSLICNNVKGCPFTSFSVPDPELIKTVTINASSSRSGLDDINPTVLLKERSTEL

SMILES | inhibition at 1 µM [1] [%] | inhibition at 5 µM (COX-2) [%]
O=C(c1ccccc1)c1sc(Nc2ccc3c(c2)OCO3)nc1-c1ccccc1 [5a] | < 0 | –
COc1ccc(Nc2nc(-c3ccccc3)c(C(=O)c3ccccc3)s2)cc1 [5c] | < 0 | –
Cc1nc(Nc2ccc(Oc3ccccc3)cc2)sc1C(C)O (stereo not drawn) [5l] | – | -16.9 ± 10
